Reference: ChEMBL document CHEMBL5550201, “Discovery of a Highly Potent, Selective and Efficacious USP7 Degrader for the Treatment of Acute Lymphoblastic Leukemia” (J Med Chem, 2024)
The source made the active and inactive calls. The calls are words filed in the database; no cut-off is given here.

Columns and labels:
RS4-11 [1] = experiment: Induction of apoptosis in human RS4-11 cells assessed as necrotic cells at 100 nM measured after 72 hrs by FITC-annexin-V/PI analysis (reference value: 0%); assay type: functional
RS4-11 [2] = experiment: Induction of apoptosis in human RS4-11 cells assessed as early apoptotic cells at 1000 nM measured after 72 hrs by FITC-annexin-V/PI analysis (reference value: 5.36%); assay type: functional
RS4-11 [3] = experiment: Induction of cell cycle arrest in human RS4-11 cells assessed as assessed as total apoptotic cells at 1 nM measured after 12 hrs by flow cytometry relative to control; assay type: functional
RS4-11 [4] = experiment: Induction of apoptosis in human RS4-11 cells assessed as early apoptotic cells at 100 nM measured after 72 hrs by FITC-annexin-V/PI analysis (reference value: 5.36%); assay type: functional
[5] = molecular target: T1, von Hippel-Lindau disease tumor suppressor/Ubiquitin carboxyl-terminal hydrolase 7 (Homo sapiens, UniProt Q93009+P40337); experiment: PROTACT activity at USP7/VHL in human RS4;11 cells assessed as protein degradation at 10 nM measured after 6 hrs in presence of (R)-3-(4-(aminomethyl)phenyl)-6-((4-hydroxy-1-(3-phenylbutanoyl)piperidin-4-yl)methyl)-2-methyl-2,6-dihydro-7H-pyrazolo[4,3-d]pyrimidin-7-one by Western blot analysis; assay type: cell-based
[6] = Toxicity in NOD/SCID mouse xenografted with human RS4-11 cells assessed as body weight change at 5 to 20 mg/kg, ip daily measured after 18 days relative to control; assay type: organism-based; settings: in vivo, 432 h, dose 5-20 mg/kg, time 18 day
[7] = molecular target: T1, von Hippel-Lindau disease tumor suppressor/Ubiquitin carboxyl-terminal hydrolase 7; experiment: PROTACT activity at USP7/VHL in human RS4;11 cells assessed as selective USP7 degradation at 100 nM measured after 4 hrs by proteomics analysis; assay type: cell-based
[8] = molecular target: T1, von Hippel-Lindau disease tumor suppressor/Ubiquitin carboxyl-terminal hydrolase 7; experiment: PROTACT activity at USP7/VHL in human RS4;11 cells assessed as protein degradation at 10 to 100 nM measured after 12 hrs by Western blot analysis; assay type: cell-based; settings: dose 10-100 nM
RS4-11 [9] = experiment: Induction of apoptosis in human RS4-11 cells assessed as necrotic cells at 1000 nM measured after 72 hrs by FITC-annexin-V/PI analysis (reference value: 0%); assay type: functional
RS4-11 [10] = experiment: Induction of apoptosis in human RS4-11 cells assessed as late apoptotic cells at 100 nM measured after 72 hrs by FITC-annexin-V/PI analysis (reference value: 3.23%); assay type: functional

T1 sequence (P40337 whole entry, looked up): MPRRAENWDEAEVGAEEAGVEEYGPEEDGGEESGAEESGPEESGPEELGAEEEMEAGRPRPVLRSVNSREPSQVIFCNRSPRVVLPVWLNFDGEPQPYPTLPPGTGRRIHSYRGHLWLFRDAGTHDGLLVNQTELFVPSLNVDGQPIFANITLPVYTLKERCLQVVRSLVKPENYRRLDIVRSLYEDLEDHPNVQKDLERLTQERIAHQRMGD
T1 sequence (Q93009 whole entry, looked up): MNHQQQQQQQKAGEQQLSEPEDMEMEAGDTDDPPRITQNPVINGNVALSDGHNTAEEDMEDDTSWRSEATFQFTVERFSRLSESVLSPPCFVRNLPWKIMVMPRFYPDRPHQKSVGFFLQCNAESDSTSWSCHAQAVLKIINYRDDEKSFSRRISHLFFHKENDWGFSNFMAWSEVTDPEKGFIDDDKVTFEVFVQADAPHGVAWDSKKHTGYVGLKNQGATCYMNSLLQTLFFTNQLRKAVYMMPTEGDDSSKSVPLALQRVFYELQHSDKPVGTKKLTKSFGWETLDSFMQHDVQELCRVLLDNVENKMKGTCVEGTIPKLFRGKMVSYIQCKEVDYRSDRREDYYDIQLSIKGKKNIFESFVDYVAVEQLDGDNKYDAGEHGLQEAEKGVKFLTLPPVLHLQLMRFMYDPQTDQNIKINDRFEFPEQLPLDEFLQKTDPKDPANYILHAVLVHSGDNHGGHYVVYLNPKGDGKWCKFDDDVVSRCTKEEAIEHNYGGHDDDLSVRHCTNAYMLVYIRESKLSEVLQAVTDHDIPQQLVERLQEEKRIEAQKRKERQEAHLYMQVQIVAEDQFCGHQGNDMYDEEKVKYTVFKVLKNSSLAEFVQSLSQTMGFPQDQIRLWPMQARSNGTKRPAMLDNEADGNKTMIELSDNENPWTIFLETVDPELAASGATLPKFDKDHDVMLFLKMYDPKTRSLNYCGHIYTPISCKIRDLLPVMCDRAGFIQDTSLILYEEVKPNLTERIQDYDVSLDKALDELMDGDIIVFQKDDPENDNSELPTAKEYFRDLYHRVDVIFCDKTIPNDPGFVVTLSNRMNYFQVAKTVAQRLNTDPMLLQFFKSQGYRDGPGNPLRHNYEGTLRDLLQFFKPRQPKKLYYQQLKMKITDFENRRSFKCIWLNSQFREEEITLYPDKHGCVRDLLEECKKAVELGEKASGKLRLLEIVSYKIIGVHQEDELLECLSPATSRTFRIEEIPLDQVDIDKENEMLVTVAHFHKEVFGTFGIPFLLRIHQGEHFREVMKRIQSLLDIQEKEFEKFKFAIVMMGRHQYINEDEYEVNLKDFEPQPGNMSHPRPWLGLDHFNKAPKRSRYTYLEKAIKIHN

Activity [5]: inactive
Activity [7]: Active
Activity [8]: Active
Compound: Cc1ncsc1-c1ccc([C@H](C)NC(=O)[C@@H]2C[C@@H](O)CN2C(=O)[C@@H](c2cc(N3CCN(Cc4ccc(-c5c6ncn(CC7(O)CCN(C(=O)C[C@@H](C)c8ccccc8)CC7)c(=O)c6nn5C)cc4)CC3)no2)C(C)C)cc1
Activity (RS4-11 [1]): 0.01%
Activity (RS4-11 [2]): 19.81%
Activity (RS4-11 [3]): 12.98%
Activity (RS4-11 [4]): 19.6%
Activity [6]: Non-Toxic
Activity (RS4-11 [9]): 0%
Activity (RS4-11 [10]): 20.73%
